#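 Assay format: 96-well plates, 48-hour exposure. GI50 is the concentration that inhibits growth by half.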 Active and inactive are the calls of the source. No stated cut-off is given here; in the data, active = GI50 up to about 1.1 µM and inactive = higher.
# Key:
# Test in all cases: NCI tumour cell line growth inhibition, 48 h
# [1] = test system: 786-0
# [2] = test system: A498
# [3] = test system: A549
# [4] = test system: ACHN
# [5] = test system: CAKI-1
# [6] = test system: CCRF-CEM
# [7] = test system: COLO 205
# [8] = test system: DLD-1
# [9] = test system: DMS-273
# [10] = test system: EKVX
# [11] = test system: HCC 2998
# [12] = test system: HCT-116
# [13] = test system: HCT-15
# [14] = test system: HL-60
# [15] = test system: HOP-18
# [16] = test system: HOP-62
# [17] = test system: HOP-92
# [18] = test system: HT-29
# [19] = test system: IGROV-1
# [20] = test system: K562
# [21] = test system: KM-20L2
# [22] = test system: KM12
# [23] = test system: LXFL 529
# [24] = test system: M14
# [25] = test system: M19-MEL
# [26] = test system: MOLT-4
# [27] = test system: Malme-3M
# [28] = test system: NCI-H226
# [29] = test system: NCI-H23
# [30] = test system: NCI-H460
# [31] = test system: NCI-H522
# [32] = test system: OVCAR-3
# [33] = test system: OVCAR-4
# [34] = test system: OVCAR-5
# [35] = test system: OVCAR-8
# [36] = test system: RPMI-8226
# [37] = test system: RXF 631
# [38] = test system: SF-268
# [39] = test system: SF-295
# [40] = test system: SF-539
# [41] = test system: SK-MEL-28
# [42] = test system: SK-MEL-2
# [43] = test system: SK-MEL-5
# [44] = test system: SK-OV-3
# [45] = test system: SN12C
# [46] = test system: SNB-19
# [47] = test system: SNB-75
# [48] = test system: SNB-78
# [49] = test system: SR
# [50] = test system: SW-620
# [51] = test system: TK-10
# [52] = test system: U-251
# [53] = test system: UACC-257
# [54] = test system: UACC-62
# [55] = test system: UO-31
# [56] = test system: XF498
# [57] = test system: LOX IMVI
compound,measurement,setting,value
CCC(C(=O)c1ccccc1)C(CCCC(=O)Nc1c(C)cccc1C)N=O (stereo unspecified),GI50,[1],> 100 µM (inactive)
same,GI50,[2],> 100 µM (inactive)
same,GI50,[3],> 100 µM (inactive)
same,GI50,[4],> 100 µM (inactive)
same,GI50,[5],> 100 µM (inactive)
same,GI50,[6],> 100 µM (inactive)
same,GI50,[7],> 100 µM (inactive)
same,GI50,[8],> 100 µM (inactive)
same,GI50,[9],> 100 µM (inactive)
same,GI50,[10],> 100 µM (inactive)
same,GI50,[11],> 100 µM (inactive)
same,GI50,[12],> 100 µM (inactive)
same,GI50,[13],> 100 µM
same,GI50,[14],> 100 µM (inactive)
same,GI50,[15],> 100 µM (inactive)
same,GI50,[16],> 100 µM (inactive)
same,GI50,[17],> 100 µM (inactive)
same,GI50,[18],> 100 µM (inactive)
same,GI50,[19],> 100 µM (inactive)
same,GI50,[20],> 100 µM (inactive)
same,GI50,[21],> 100 µM (inactive)
same,GI50,[22],> 100 µM (inactive)
same,GI50,[23],> 100 µM (inactive)
same,GI50,[24],> 100 µM (inactive)
same,GI50,[25],> 100 µM (inactive)
same,GI50,[26],> 100 µM (inactive)
same,GI50,[27],> 100 µM (inactive)
same,GI50,[28],> 100 µM (inactive)
same,GI50,[29],> 100 µM (inactive)
same,GI50,[30],> 100 µM (inactive)
same,GI50,[31],> 100 µM (inactive)
same,GI50,[32],> 100 µM (inactive)
same,GI50,[33],> 100 µM (inactive)
same,GI50,[34],> 100 µM (inactive)
same,GI50,[35],> 100 µM (inactive)
same,GI50,[36],> 100 µM (inactive)
same,GI50,[37],> 100 µM (inactive)
same,GI50,[38],> 100 µM (inactive)
same,GI50,[39],> 100 µM (inactive)
same,GI50,[40],> 100 µM (inactive)
same,GI50,[41],> 100 µM (inactive)
same,GI50,[42],> 100 µM (inactive)
same,GI50,[43],> 100 µM (inactive)
same,GI50,[44],> 100 µM (inactive)
same,GI50,[45],> 100 µM (inactive)
same,GI50,[46],> 100 µM (inactive)
same,GI50,[47],> 100 µM (inactive)
same,GI50,[48],> 100 µM (inactive)
same,GI50,[49],> 100 µM (inactive)
same,GI50,[50],> 100 µM (inactive)
same,GI50,[51],> 100 µM (inactive)
same,GI50,[52],> 100 µM (inactive)
same,GI50,[53],> 100 µM (inactive)
same,GI50,[54],> 100 µM (inactive)
same,GI50,[55],> 100 µM (inactive)
same,GI50,[56],> 100 µM (inactive)
Nc1ncn([C@@H]2C=C(CO)C(O)C2O)c(=O)n1 (stereo partly specified),GI50,[1],55.5 µM (inactive)
same,GI50,[2],> 100 µM (inactive)
same,GI50,[3],66.5 µM (inactive)
same,GI50,[4],51.4 µM (inactive)
same,GI50,[5],98.4 µM (inactive)
same,GI50,[6],45.5 µM (inactive)
same,GI50,[7],37.8 µM (inactive)
same,GI50,[8],58.2 µM (inactive)
same,GI50,[9],> 100 µM (inactive)
same,GI50,[10],> 100 µM (inactive)
same,GI50,[11],56.2 µM (inactive)
same,GI50,[12],39.2 µM (inactive)
same,GI50,[13],60.3 µM
same,GI50,[14],39.5 µM (inactive)
same,GI50,[15],> 100 µM (inactive)
same,GI50,[16],53.7 µM (inactive)
same,GI50,[17],> 100 µM (inactive)
same,GI50,[18],57.4 µM (inactive)
same,GI50,[19],70.1 µM (inactive)
same,GI50,[20],43.6 µM (inactive)
same,GI50,[21],63.8 µM (inactive)
same,GI50,[22],85.3 µM (inactive)
same,GI50,[57],44.4 µM (inactive)
same,GI50,[23],75 µM (inactive)
same,GI50,[24],60.1 µM (inactive)
same,GI50,[25],> 100 µM (inactive)
same,GI50,[26],56.5 µM (inactive)
same,GI50,[27],> 100 µM (inactive)
same,GI50,[28],95.1 µM (inactive)
same,GI50,[29],> 100 µM (inactive)
same,GI50,[30],28.6 µM (inactive)
same,GI50,[31],> 100 µM (inactive)
same,GI50,[32],> 100 µM (inactive)
same,GI50,[33],> 100 µM (inactive)
same,GI50,[34],> 100 µM (inactive)
same,GI50,[35],79.3 µM (inactive)
same,GI50,[36],37.7 µM (inactive)
same,GI50,[37],> 100 µM (inactive)
same,GI50,[38],> 100 µM (inactive)
same,GI50,[39],> 100 µM (inactive)
same,GI50,[40],> 100 µM (inactive)
same,GI50,[41],> 100 µM (inactive)
same,GI50,[42],> 100 µM (inactive)
same,GI50,[43],> 100 µM (inactive)
same,GI50,[44],> 100 µM (inactive)
same,GI50,[45],> 100 µM (inactive)
same,GI50,[46],> 100 µM (inactive)
same,GI50,[48],61.5 µM (inactive)
same,GI50,[50],69.8 µM (inactive)
same,GI50,[51],> 100 µM (inactive)
same,GI50,[52],> 100 µM (inactive)
same,GI50,[53],> 100 µM (inactive)
same,GI50,[54],83.9 µM (inactive)
same,GI50,[55],50.7 µM (inactive)
same,GI50,[56],> 100 µM (inactive)

# From ChEMBL document CHEMBL1201862, “PubChem BioAssay data set” (2004)
